Earlier results on one compound are cited in article PMC9851200, “Multiparameter phenotypic screening for endogenous TFEB and TFE3 translocation identifies novel chemical series modulating lysosome function” (Autophagy, 2022).

Structures are written as SMILES.

Holding throughout (design): method as in original PKIS2 published data
For data set [1], the target named is kinases (KINOMEscan panel) (Homo sapiens, UniProt Q8N5S9). The note with it: CAMKK1; Published KINOMEscan; ref original PKIS2 published data; cited from earlier work.
The target of data set [2] is kinases (KINOMEscan panel) (Homo sapiens, UniProt Q99755). To be noted: Published KINOMEscan; ref original PKIS2 published data; cited from earlier work.
Data set [3] addresses kinases (KINOMEscan panel) (Homo sapiens, UniProt Q15375). The note with it: EPHA7; Published KINOMEscan; ref original PKIS2 published data; cited from earlier work.
In data set [4] the target is T1, kinases (KINOMEscan panel) (Homo sapiens, UniProt P51956).
T1 sequence (P51956 1-506): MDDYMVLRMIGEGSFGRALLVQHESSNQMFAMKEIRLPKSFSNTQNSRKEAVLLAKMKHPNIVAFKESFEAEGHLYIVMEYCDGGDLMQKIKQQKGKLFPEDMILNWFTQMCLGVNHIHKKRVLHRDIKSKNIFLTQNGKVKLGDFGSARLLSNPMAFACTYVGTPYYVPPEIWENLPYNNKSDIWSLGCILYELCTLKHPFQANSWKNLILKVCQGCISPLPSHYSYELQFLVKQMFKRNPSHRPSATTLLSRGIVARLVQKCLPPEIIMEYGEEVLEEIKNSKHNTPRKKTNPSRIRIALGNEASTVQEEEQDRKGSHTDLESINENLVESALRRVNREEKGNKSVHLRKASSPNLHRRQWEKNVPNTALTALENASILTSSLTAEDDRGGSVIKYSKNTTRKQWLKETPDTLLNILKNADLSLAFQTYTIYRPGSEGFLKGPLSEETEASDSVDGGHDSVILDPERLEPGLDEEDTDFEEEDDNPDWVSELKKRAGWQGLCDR
To be noted: kinase NEK3; Published KINOMEscan; ref original PKIS2 published data; cited from earlier work.

The target of data set [5] is kinases (KINOMEscan panel) (Homo sapiens, UniProt Q8NEV4). To be noted: kinase MYO3A; Published KINOMEscan; ref original PKIS2 published data; cited from earlier work.
In data set [6] the target is T2, kinases (KINOMEscan panel) (Homo sapiens, UniProt Q8NG66).
T2 sequence (Q8NG66 1-645): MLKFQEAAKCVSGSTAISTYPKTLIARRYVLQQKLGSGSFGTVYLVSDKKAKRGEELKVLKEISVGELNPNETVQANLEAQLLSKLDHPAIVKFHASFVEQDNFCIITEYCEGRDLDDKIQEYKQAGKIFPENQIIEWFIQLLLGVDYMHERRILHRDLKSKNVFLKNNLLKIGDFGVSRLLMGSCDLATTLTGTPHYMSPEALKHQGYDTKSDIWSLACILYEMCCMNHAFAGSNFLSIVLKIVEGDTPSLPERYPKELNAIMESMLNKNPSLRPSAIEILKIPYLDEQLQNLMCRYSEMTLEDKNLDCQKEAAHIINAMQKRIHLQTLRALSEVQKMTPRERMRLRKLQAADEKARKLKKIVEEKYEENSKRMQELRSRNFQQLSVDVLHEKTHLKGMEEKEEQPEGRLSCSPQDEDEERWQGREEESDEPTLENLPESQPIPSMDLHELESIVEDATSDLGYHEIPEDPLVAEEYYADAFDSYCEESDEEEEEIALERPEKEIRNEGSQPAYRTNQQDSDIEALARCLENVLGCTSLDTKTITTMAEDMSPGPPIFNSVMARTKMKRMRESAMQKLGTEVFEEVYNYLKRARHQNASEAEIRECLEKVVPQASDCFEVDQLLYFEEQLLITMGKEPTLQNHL
To be noted: Published KINOMEscan; ref original PKIS2 published data; cited from earlier work.

The target of data set [7] is kinases (KINOMEscan panel) (Homo sapiens, UniProt P54756). The note with it: kinase EPHA5; Published KINOMEscan; ref original PKIS2 published data; cited from earlier work.
Data set [8] addresses T3, kinases (KINOMEscan panel) (Homo sapiens, UniProt P29323).
T3 sequence (P29323 19-1055): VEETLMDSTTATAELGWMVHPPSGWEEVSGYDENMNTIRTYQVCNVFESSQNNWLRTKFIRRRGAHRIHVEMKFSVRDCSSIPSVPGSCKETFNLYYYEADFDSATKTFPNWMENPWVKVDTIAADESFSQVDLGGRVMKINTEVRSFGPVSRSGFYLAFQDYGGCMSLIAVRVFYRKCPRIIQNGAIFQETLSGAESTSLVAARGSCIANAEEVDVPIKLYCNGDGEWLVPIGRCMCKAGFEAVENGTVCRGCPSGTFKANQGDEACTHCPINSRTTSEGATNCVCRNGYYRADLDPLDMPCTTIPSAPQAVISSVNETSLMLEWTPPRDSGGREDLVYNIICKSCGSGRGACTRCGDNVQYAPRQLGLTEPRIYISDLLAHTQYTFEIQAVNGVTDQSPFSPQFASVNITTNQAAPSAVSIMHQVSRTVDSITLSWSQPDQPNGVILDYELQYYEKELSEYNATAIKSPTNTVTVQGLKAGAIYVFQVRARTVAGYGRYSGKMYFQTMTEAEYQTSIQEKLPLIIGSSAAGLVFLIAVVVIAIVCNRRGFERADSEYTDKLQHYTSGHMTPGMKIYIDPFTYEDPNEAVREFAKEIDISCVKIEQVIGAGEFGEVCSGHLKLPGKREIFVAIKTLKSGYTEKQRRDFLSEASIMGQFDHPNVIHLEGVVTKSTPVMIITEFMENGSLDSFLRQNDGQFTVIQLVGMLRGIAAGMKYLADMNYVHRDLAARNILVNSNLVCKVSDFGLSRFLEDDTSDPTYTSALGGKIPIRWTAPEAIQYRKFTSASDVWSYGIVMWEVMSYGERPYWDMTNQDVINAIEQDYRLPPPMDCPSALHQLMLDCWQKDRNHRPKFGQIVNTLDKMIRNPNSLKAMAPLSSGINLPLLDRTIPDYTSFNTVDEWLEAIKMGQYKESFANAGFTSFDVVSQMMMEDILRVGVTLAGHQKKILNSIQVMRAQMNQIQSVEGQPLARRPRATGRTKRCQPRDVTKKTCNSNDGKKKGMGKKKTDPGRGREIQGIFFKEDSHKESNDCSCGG
The note with it: EPHB2; Published KINOMEscan; ref original PKIS2 published data; cited from earlier work.

Sequence of kinases (KINOMEscan panel) (Homo sapiens, UniProt Q15375) (Q15375 28-998): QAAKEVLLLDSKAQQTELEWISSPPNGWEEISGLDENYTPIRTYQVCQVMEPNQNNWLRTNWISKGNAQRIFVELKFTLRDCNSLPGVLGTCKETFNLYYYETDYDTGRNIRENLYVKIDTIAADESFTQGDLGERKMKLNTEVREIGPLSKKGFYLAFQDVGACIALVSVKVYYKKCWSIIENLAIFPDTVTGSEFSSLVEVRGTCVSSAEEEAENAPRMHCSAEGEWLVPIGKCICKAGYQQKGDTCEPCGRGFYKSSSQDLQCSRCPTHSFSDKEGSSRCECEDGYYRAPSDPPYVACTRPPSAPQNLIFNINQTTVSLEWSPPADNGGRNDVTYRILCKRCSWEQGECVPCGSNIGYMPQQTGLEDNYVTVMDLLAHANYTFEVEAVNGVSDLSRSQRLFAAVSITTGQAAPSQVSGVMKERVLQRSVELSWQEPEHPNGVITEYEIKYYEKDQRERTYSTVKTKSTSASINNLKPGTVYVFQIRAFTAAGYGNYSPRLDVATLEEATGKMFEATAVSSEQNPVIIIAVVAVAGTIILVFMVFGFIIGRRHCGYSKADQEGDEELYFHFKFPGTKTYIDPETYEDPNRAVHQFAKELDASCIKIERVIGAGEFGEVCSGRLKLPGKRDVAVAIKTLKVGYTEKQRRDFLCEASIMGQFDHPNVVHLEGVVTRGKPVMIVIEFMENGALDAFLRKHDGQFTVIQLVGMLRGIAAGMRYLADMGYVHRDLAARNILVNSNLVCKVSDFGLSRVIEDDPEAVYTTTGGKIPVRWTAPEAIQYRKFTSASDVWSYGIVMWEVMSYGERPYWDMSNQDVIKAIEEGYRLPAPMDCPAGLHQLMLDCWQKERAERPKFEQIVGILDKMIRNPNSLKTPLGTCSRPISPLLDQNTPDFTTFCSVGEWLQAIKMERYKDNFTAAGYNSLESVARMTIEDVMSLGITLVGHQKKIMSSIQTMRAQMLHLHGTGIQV
Sequence of kinases (KINOMEscan panel) (Homo sapiens, UniProt Q8N5S9) (Q8N5S9 whole entry): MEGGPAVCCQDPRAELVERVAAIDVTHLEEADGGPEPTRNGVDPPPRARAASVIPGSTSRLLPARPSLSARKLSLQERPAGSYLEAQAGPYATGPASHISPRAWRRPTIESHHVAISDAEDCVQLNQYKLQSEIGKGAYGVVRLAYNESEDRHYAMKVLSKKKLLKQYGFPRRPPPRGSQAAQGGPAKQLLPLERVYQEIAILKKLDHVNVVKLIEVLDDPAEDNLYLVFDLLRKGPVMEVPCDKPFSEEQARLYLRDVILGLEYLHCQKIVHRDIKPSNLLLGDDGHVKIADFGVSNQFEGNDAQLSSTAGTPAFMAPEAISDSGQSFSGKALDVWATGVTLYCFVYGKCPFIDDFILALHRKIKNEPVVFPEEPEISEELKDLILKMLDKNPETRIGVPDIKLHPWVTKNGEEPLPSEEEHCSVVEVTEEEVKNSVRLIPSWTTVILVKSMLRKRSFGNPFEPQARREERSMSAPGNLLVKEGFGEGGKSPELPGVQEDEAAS
Sequence of kinases (KINOMEscan panel) (Homo sapiens, UniProt Q99755) (Q99755 whole entry): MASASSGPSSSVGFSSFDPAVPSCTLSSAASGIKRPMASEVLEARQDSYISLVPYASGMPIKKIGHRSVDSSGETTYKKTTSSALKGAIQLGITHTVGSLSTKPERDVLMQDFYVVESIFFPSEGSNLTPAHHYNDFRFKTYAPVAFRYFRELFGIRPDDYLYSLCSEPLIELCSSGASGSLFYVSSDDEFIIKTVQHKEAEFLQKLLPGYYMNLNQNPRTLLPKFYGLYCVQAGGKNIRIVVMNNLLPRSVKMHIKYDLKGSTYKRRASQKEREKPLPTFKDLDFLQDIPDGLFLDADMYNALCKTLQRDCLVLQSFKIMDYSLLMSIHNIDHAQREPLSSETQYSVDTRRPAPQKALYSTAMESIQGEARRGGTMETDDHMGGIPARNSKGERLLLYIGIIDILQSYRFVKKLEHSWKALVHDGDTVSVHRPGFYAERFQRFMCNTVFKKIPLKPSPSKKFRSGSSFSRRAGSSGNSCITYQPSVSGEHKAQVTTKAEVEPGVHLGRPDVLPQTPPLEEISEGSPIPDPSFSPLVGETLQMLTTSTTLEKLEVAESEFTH
Sequence of kinases (KINOMEscan panel) (Homo sapiens, UniProt Q8NEV4) (Q8NEV4 whole entry): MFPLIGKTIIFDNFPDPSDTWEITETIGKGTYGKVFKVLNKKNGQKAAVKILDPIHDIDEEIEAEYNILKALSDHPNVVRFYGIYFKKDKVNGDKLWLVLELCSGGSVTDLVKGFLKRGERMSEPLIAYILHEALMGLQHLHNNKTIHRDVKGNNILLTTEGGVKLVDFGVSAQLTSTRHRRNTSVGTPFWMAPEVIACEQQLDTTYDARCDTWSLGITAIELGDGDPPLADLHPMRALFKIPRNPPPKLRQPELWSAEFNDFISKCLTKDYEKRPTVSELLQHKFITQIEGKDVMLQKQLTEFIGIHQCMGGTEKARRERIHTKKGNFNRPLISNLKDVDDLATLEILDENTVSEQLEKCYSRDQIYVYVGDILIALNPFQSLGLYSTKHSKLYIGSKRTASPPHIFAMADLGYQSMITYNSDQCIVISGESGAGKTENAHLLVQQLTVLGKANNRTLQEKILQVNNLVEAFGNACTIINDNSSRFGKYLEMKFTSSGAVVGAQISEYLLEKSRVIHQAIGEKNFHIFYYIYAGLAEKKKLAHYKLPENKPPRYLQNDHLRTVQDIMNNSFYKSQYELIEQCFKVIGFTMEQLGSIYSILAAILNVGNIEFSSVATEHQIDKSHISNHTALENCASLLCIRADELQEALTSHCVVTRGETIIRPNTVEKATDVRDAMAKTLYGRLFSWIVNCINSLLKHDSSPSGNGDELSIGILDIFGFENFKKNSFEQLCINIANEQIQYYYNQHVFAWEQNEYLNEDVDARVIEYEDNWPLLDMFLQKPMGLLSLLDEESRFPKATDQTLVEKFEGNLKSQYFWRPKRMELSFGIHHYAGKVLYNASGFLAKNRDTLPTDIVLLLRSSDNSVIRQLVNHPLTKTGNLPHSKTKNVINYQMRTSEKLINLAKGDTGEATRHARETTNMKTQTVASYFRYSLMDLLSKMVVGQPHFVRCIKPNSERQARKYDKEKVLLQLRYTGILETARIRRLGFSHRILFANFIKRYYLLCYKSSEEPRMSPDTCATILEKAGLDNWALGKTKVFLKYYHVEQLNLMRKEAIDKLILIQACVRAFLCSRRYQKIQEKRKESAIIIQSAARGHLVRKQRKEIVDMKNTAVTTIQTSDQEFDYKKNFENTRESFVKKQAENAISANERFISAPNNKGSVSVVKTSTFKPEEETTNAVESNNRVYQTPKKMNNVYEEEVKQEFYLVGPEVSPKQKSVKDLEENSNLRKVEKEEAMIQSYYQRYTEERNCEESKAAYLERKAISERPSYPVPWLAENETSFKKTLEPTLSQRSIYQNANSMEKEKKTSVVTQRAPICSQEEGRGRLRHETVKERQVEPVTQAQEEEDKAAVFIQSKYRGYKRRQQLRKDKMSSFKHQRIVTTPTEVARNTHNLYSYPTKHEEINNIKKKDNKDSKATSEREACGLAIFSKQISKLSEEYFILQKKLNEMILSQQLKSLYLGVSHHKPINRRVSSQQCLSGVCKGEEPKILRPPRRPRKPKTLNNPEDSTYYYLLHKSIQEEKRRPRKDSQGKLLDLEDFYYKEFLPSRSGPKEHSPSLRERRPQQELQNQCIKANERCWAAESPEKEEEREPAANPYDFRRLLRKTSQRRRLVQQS
Sequence of kinases (KINOMEscan panel) (Homo sapiens, UniProt P54756) (P54756 25-1037): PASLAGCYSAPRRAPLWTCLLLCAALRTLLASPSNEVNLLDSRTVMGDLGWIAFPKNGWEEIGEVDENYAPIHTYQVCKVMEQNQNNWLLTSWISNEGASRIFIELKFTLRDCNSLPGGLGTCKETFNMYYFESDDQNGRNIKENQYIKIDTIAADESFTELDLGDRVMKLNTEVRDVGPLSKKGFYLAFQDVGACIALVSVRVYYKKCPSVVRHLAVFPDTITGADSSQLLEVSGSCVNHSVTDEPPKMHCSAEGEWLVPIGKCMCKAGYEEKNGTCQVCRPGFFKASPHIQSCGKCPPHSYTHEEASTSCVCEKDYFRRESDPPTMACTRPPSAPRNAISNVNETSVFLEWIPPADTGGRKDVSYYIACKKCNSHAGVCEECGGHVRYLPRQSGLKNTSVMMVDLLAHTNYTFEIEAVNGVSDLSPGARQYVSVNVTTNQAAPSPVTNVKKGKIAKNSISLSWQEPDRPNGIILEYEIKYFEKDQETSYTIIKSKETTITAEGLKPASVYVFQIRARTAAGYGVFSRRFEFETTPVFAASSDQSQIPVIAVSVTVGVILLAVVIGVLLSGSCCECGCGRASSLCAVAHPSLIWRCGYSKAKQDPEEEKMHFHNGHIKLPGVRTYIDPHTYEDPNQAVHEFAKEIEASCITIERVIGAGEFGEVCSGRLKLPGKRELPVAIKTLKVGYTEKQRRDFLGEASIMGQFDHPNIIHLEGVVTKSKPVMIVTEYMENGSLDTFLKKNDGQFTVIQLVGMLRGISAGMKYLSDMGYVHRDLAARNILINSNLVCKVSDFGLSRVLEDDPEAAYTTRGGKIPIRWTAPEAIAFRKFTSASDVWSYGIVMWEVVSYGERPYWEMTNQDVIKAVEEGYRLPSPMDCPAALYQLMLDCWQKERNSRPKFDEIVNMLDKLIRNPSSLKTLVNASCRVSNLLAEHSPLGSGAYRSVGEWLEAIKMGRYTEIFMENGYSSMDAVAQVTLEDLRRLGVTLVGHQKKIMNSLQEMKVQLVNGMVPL

On to `Cc1cccc(-c2nc(Nc3ccncc3)c3ccccc3n2)n1` [NK215], for which the “KINOMEscan CAMKK1” value in data set [1] is 24. Also, the “KINOMEscan PIP5K1A” value in data set [2] was 10. Also, in data set [3], the “KINOMEscan EPHA7” value is recorded as 0. In addition, the “KINOMEscan NEK3” value in data set [4] is recorded as 30. The “KINOMEscan MYO3A” value in data set [5] was 0. In addition, in data set [6], the “KINOMEscan NEK11” value is on record as 0. Further, the “KINOMEscan EPHA5” value in data set [7] is 0. For the same compound, in data set [8], the “KINOMEscan EPHB2” value is given as 16.
